Results taken from patent US20200216316A1, “METHOD FOR THE MANUFACTURE OF CYCLODODECASULFUR” (EASTMAN CHEMICAL COMPANY, priority 2016, published 2020).

Assays:
[1] = Solubility of sulfur species in p-xylene, chlorobenzene and carbon disulfide (sulfur content of equilibrated supernatant by Uniquant); assay type: physicochemical
Experimental: Fifty grams of p-xylene was added to each of three identical 100-milliliter jacketed glass vessels fitted with a circulating heating bath, cooling water condenser, magnetic stir bar and stir plate, and nitrogen purge. All vessels were heated to the desired temperature, and cyclooctasulfur, cyclododecasulfur (prepared as in Example 2), and unoiled commercial crystalline polymeric sulfur (Crystex™) was added in sufficient quantities to each of the glass vessels to allow undissolved solids to remain after dissolution and equilibration of the mixture. The equilibration period typically lasted 2 to 8 hours, during which the contents of the vessel were maintained at the desired temperature and stirred continuously. Upon equilibration, supernatant liquid was withdrawn from the vessels via a heated fritted glass pipette (heated to the same temperature as the solution). The supernatants were analyzed by Uniquant to determine sulfur content, indicating the solubility of the sulfur species at the vessel temperature. Similar experiments were conducted for carbon disulfide and chlorobenzene for each of the three solutes.

[2] = Thermal decomposition in p-xylene at 115° C. (sulfur content of supernatant by Uniquant); assay type: physicochemical; conditions: for Content of sulfur in the p-xylene solvent: 115° C.
Experimental: The purpose of this experiment was to determine the rate that polymeric sulfur thermally decomposes into cyclooctasulfur in p-xylene. Polymeric sulfur is essentially insoluble in p-xylene, except when the polymer decomposes into cyclooctasulfur. Thus, the sulfur content in the p-xylene is a measure of the amount of polymeric sulfur that has decomposed to cyclooctasulfur. In this experiment, 50.32 grams of p-xylene were added to a 100-milliliter jacketed glass vessels fitted with a circulating heating bath, cooling water condenser, magnetic stir bar and stir plate, and nitrogen purge. The p-xylene was heated to 115° C. and 2.03 grams of unoiled commercial crystalline polymeric sulfur (Crystex™) was added while stirring. Periodically samples of the supernatant liquid were withdrawn from the vessel via a heated fritted glass pipette (heated to the same temperature as the solution). These supernatant samples were analyzed by Uniquant to determine sulfur content. The sulfur content was used to calculate the amount of polymeric sulfur remaining undissolved and undecomposed to cyclooctasulfur. After 60 and 75 minutes at 115° C., about 85% and essentially 100% respectively, of the polymeric sulfur had been converted into cyclooctasulfur.
The equipment and procedure used in Example 22 for measurement of the decomposition of polymeric sulfur was used to measure the decomposition of cyclododecasulfur in para-xylene. Two grams of purified cyclododecasulfur (produced by a procedure in the fashion of Example 2) was heated and stirred in 50.0 grams of p-xylene in a 100-milliliter jacketed glass vessels fitted with a circulating heating bath, cooling water condenser, magnetic stir bar and stir plate, and nitrogen purge. After 60, 75, and 120 minutes at 115° C., the content of sulfur in the p-xylene solvent was found by Uniquant to be about 0.4 wt % in each case, similar to the solubility of cyclododecasulfur in p-xylene at 115° C. (see Example 21). Upon cooling of the p-xylene, filtration, and drying of the recovered solids overnight in a vacuum oven at room temperature and 0.067 MPa (absolute), greater than 97% of the cyclododecasulfur input weight of solids was recovered.

Row | Solubility in weight % of solute in solvent ([1]; CS2, 22 ° C.) | Solubility in weight % of solute in solvent ([1]; CS2, 45 ° C.) | Solubility in weight % of solute in solvent ([1]; Cl-benzene, 45 ° C.) | Solubility in weight % of solute in solvent ([1]; Cl-benzene, 115 ° C.) | Solubility in weight % of solute in solvent ([1]; P-xylene, 45 ° C.) | Solubility in weight % of solute in solvent ([1]; P-xylene, 115 ° C.) | Input weight of solids recovered after heating ([2]; after 120 minutes at 115° C. in p-xylene, cooling, filtration and drying) | Fraction decomposed/converted to cyclooctasulfur ([2]; mixture of polymeric sulfur and cyclododecasulfur in p-xylene at 115° C. for two hours) | Content of sulfur in the p-xylene solvent ([2]; 60 minutes) | Content of sulfur in the p-xylene solvent ([2]; 75 minutes) | Content of sulfur in the p-xylene solvent ([2]; 120 minutes) | Solubility in weight % of solute in solvent ([1]; Cl-benzene, 22 ° C.) | Solubility in weight % of solute in solvent ([1]; P-xylene, 22 ° C.) | Structure (SMILES)
1 | 0.2 wt % | 0.5 wt % | 0.015 wt % | 0.44 wt % | <0.05 wt % | 0.4 wt % | greater than 97% | less than 3% | about 0.4 wt % | about 0.4 wt % | about 0.4 wt % | – | – | S1SSSSSSSSSSS1 [Cyclododecasulfur, cyclododecasulfur]
2 | 32 wt % | 48 wt % | 6.2 wt % | – | 5.6 wt % | – | – | – | – | – | – | 2.4 wt % | 2.3 wt % | S1SSSSSSS1 [Cyclooctasulfur, cyclooctasulfur, reference compound]
